Data reported in patent US20070082880A1 (priority 2005, published 2007).

Target: T1, human PKCθ full length enzyme (Homo sapiens, UniProt Q04759)
T1 construct: human PKCθ full length enzyme (Panvera Catalog No. P2996); purchased Panvera P2996
Experiment: PKCθ IMAP Assay
Assay type: biochemical
Conditions: average value when one or more samples were tested; ATP 6 uM, PKCθ 1 nM
Outline: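 Full-length human PKCθ (1 nM final) with 6 uM ATP and 100 nM 5FAM-labelled peptide, 5% DMSO, 3.0 mM DTT in reaction buffer. 25 min at room temperature; IMAP bead binding 20 min, fluorescence polarization read. Compounds 2:1 serially diluted; no-ATP and no-enzyme wells as controls.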

T1 sequence (Q04759 whole entry): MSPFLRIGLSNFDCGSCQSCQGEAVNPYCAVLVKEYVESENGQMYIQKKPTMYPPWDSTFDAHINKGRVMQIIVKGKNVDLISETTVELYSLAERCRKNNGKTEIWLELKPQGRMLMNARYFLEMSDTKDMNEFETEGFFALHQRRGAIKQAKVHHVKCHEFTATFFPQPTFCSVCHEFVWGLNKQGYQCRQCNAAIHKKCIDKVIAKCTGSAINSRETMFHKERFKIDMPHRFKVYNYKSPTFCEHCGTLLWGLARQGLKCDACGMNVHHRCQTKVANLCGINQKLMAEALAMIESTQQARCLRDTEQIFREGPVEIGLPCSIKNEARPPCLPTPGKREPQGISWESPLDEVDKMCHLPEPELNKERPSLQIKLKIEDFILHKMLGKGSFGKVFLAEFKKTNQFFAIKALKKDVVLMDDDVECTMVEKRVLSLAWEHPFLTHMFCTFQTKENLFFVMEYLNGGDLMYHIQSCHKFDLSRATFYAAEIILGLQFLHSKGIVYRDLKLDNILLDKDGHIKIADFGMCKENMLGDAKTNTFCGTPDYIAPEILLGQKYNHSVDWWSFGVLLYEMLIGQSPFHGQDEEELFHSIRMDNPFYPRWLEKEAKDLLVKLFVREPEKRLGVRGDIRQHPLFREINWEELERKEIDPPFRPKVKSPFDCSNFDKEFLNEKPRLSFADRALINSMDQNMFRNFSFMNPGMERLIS

Row | IC50 [µM] | SMILES
1 | 0.13 | CN(C)CCN1CCN(Cc2cccc(-c3cc4c(Nc5ccc6[nH]ccc6c5)c(C#N)cnc4s3)c2)CC1 [Compound 163, 2-[3-({4-[2-(dimethylamino)ethyl]piperazin-1-yl}methyl)phenyl]-4-(1H-indol-5-ylamino)thieno[2,3-b]pyridine-5-carbonitrile]
2 | 0.061 | Cc1c(Nc2c(C#N)cnc3sc(-c4ccc(CN(C)C)cc4)c(C)c23)ccc2[nH]ccc12 [Compound 460, 2-{4-[(dimethylamino)methyl]phenyl}-3-methyl-4-[(4-methyl-1H-indol-5-yl)amino]thieno[2,3-b]pyridine-5-carbonitrile]
3 | 0.24 | N#Cc1cnc2sc(-c3cccc(CN4CCCC4)c3)cc2c1Nc1ccc2[nH]ccc2c1 [Compound 159, 4-(1H-indol-5-ylamino)-2-[3-(pyrrolidin-1-ylmethyl)phenyl]thieno[2,3-b]pyridine-5-carbonitrile]
4 | 0.37 | CN(C)c1ccc(-c2cc3c(Nc4ccc5[nH]ccc5c4)c(C#N)cnc3s2)cc1 [Compound 111, 2-[4-(dimethylamino)phenyl]-4-(1H-indol-5-ylamino)thieno[2,3-b]pyridine-5-carbonitrile]
5 | 0.1 | Cc1c(Nc2c(C#N)cnc3sc(C4=CCN(C(=O)OC(C)(C)C)CC4)cc23)ccc2[nH]ccc12 [Compound 418, tert-butyl 4-{5-cyano-4-[(4-methyl-1H-indol-5-yl)amino]thieno[2,3-b]pyridin-2-yl}-5,6-dihydropyridine-1(2H)-carboxylate]
6 | 0.015 | CCNC(=O)/C=C/c1cc2c(Nc3ccc4[nH]ccc4c3C)c(C#N)cnc2s1 [Compound 307, (2E)-3-{5-cyano-4-[(4-methyl-1H-indol-5-yl)amino]thieno[2,3-b]pyridin-2-yl}-N-ethylacrylamide]
7 | 0.616 | COC(=O)Nc1ccc(-c2cc3c(Nc4ccc5[nH]ccc5c4C)c(C#N)cnc3s2)cc1 [Compound 333, methyl (4-{5-cyano-4-[(4-methyl-1H-indol-5-yl)amino]thieno[2,3-b]pyridin-2-yl}phenyl)carbamate]
8 | 0.041 | Cc1c(Nc2c(C#N)cnc3sc(/C=C/C(=O)N4CCC(O)C4)cc23)ccc2[nH]ccc12 (stereo not shown) [Compound 310, 2-[(1E)-3-(3-hydroxypyrrolidin-1-yl)-3-oxoprop-1-en-1-yl]-4-[(4-methyl-1H-indol-5-yl)amino]thieno[2,3-b]pyridine-5-carbonitrile]
9 | 0.42 | CN(C)C(=O)c1cccc(-c2cc3c(Nc4ccc5[nH]ccc5c4)c(C#N)cnc3s2)c1 [Compound 195, 3-[5-cyano-4-(1H-indol-5-ylamino)thieno[2,3-b]pyridine-2-yl]-N,N-dimethylbenzamide]
10 | 0.04 | Cc1c(Nc2c(C#N)cnc3sc(-c4cccc(OC[C@@H](O)CO)c4)cc23)ccc2[nH]ccc12 [Compound 485, 2-(3-{[(2S)-2,3-Dihydroxypropyl]-oxy}phenyl)-4-[(4-methyl-1H-indol-5-yl)amino]thieno[2,3-b]pyridine-5-carbonitrile]
11 | > 12.5 | CCCCNC(=O)Nc1ccc(-c2cc3c(Nc4ccc5[nH]ccc5c4)c(C#N)cnc3s2)cc1 [Compound 334, N-butyl-N′-{4-[5-cyano-4-(1H-indol-5-ylamino)thieno[2,3-b]pyridin-2-yl]phenyl}urea]
12 | 1.25 | N#Cc1cnc2sc(CN3CCc4ccccc4C3)cc2c1Nc1ccc2[nH]ccc2c1 [Compound 268, 2-(3,4-dihydroisoquinolin-2(1H)-ylmethyl)-4-(1H-indol-5-ylamino)thieno[2,3-b]pyridine-5-carbonitrile]
13 | 0.11 | Cc1c(Nc2c(C#N)cnc3sc(-c4ccc(S(=O)(=O)NCCO)cc4)c(C)c23)ccc2[nH]ccc12 [Compound 431, 4-{5-cyano-3-methyl-4-[(4-methyl-1H-indol-5-yl)amino]thieno[2,3-b]pyridin-2-yl}-N-(2-hydroxyethyl)benzenesulfonamide]
14 | 0.012 | Cc1c(Nc2c(C#N)cnc3sc(/C=C/CN4CCN(C)CC4)cc23)ccc2[nH]ccc12 [Compound 278, 4-[(4-methyl-1H-indol-5-yl)amino]-2-[(1E)-3-(4-methylpiperazin-1-yl)prop-1-en-1-yl]thieno[2,3-b]pyridine-5-carbonitrile]
15 | 0.021 | Cc1c(Nc2c(C#N)cnc3sc(-c4cnccn4)cc23)ccc2[nH]ccc12 [Compound 504, 4-[(4-methyl-1H-indol-5-yl)amino]-2-pyrazin-2-ylthieno[2,3-b]pyridine-5-carbonitrile]
16 | 0.08 | Cc1c(Nc2c(C#N)cnc3sc(I)c(C)c23)ccc2[nH]ccc12 [Compound 318, 2-Iodo-3-methyl-4-[(4-methyl-1H-indol-5-yl)amino]thieno[2,3-b]pyridine-5-carbonitrile]
17 | 0.092 | COCCNC(=O)c1cc2c(Nc3ccc4[nH]ccc4c3C)c(C#N)cnc2s1 [Compound 262, 5-cyano-N-(2-methoxyethyl)-4-[(4-methyl-1H-indol-5-yl)amino]thieno[2,3-b]pyridine-2-carboxamide]

Row | IC50 [µM] | SMILES
18 | 0.222 | Cc1c(Nc2c(C#N)cnc3sc(C(=O)N(C)C)cc23)ccc2[nH]ccc12 [Compound 261, 5-cyano-N,N-dimethyl-4-[(4-methyl-1H-indol-5-yl)amino]thieno[2,3-b]pyridine-2-carboxamide]
19 | 0.069 | COC/C=C/c1cc2c(Nc3ccc4[nH]ccc4c3C)c(C#N)cnc2s1 [Compound 422, 2-[(1E)-3-methoxyprop-1-en-1-yl]-4-[(4-methyl-1H-indol-5-yl)amino]thieno[2,3-b]pyridine-5-carbonitrile]
20 | 0.11 | COCCNCc1cccc(-c2cc3c(Nc4ccc5[nH]ccc5c4)c(C#N)cnc3s2)c1 [Compound 165, 4-(1H-indol-5-ylamino)-2-(3-{[(2-methoxyethyl)amino]methyl}phenyl)thieno[2,3-b]pyridine-5-carbonitrile]
21 | 0.13 | N#Cc1cnc2sc(/C=C/C(=O)N3CCCC3)cc2c1Nc1ccc2[nH]ccc2c1 [Compound 288, 4-(1H-indol-5-ylamino)-2-[(1E)-3-oxo-3-pyrrolidin-1-ylprop-1-en-1-yl]thieno[2,3-b]pyridine-5-carbonitrile]
22 | 0.038 | N#Cc1cnc2sc(-c3cccc(CN)c3)cc2c1Nc1ccc2[nH]ccc2c1 [Compound 196, 2-[3-(aminomethyl)phenyl]-4-(1H-indol-5-ylamino)thieno[2,3-b]pyridine-5-carbonitrile]
23 | 0.83 | CCc1c(Nc2c(C#N)cnc3sc(-c4ccccc4)cc23)ccc2[nH]ccc12 [Compound 126, 4-[(4-ethyl-1H-indol-5-yl)amino]-2-phenylthieno[2,3-b]pyridine-5-carbonitrile]
24 | 0.018 | Cc1c(Nc2c(C#N)cnc3sc(-c4cc(C=O)ccc4F)cc23)ccc2[nH]ccc12 [Compound 389, 2-(2-fluoro-5-formylphenyl)-4-[(4-methyl-1H-indol-5-yl)amino]thieno[2,3-b]pyridine-5-carbonitrile]
25 | 0.171 | Cc1c(Nc2c(C#N)cnc3sc(/C=C/C(=O)N4CC[C@H](N(C)C)C4)cc23)ccc2[nH]ccc12 [Compound 301, 2-{(1E)-3-[(3S)-3-(dimethylamino)pyrrolidin-1-yl]-3-oxoprop-1-en-1-yl}-4-[(4-methyl-1H-indol-5-yl)amino]thieno[2,3-b]pyridine-5-carbonitrile]
26 | 0.175 | Cc1c(Nc2c(C#N)cnc3sc(/C=C/C(=O)N4CC[C@@H](N(C)C)C4)cc23)ccc2[nH]ccc12 [Compound 300, 2-{(1E)-3-[(3R)-3-(dimethylamino)pyrrolidin-1-yl]-3-oxoprop-1-en-1-yl}-4-[(4-methyl-1H-indol-5-yl)amino]thieno[2,3-b]pyridine-5-carbonitrile]
27 | 33.6 | N#Cc1cnc2sc(/C=C/C(=O)Nc3cccnc3)cc2c1Nc1ccc2[nH]ccc2c1 [Compound 293, (2E)-3-[5-cyano-4-(1H-indol-5-ylamino)thieno[2,3-b]pyridin-2-yl]-N-pyridin-3-ylacrylamide]
28 | 0.84 | N#Cc1cnc2sc(-c3cccc(CN4CCN(Cc5ccncc5)CC4)c3)cc2c1Nc1ccc2[nH]ccc2c1 [Compound 169, 4-(1H-indol-5-ylamino)-2-(3-{[4-(pyridin-4-ylmethyl)piperazin-1-yl]methyl}phenyl)thieno[2,3-b]pyridine-5-carbonitrile]
29 | 0.013 | Cc1c(Nc2c(C#N)cnc3sc(-c4cccc(C(C)N(C)C)c4)cc23)ccc2[nH]ccc12 (stereo not shown) [Compound 347, 2-{3-[1-(dimethylamino)ethyl]phenyl}-4-[(4-methyl-1H-indol-5-yl)amino]thieno[2,3-b]pyridine-5-carbonitrile]
30 | 0.095 | Cc1c(Nc2c(C#N)cnc3sc(/C=C/c4ccccc4)c(C)c23)ccc2[nH]ccc12 [Compound 425, 3-methyl-4-[(4-methyl-1H-indol-5-yl)amino]-2-[(E)-2-phenylvinyl]thieno[2,3-b]pyridine-5-carbonitrile]
31 | 0.007 | CCOc1ccc(CN(C)C)cc1-c1cc2c(Nc3ccc4[nH]ccc4c3C)c(C#N)cnc2s1 [Compound 367, 2-{5-[(dimethylamino)methyl]-2-ethoxyphenyl}-4-[(4-methyl-1H-indol-5-yl)amino]thieno[2,3-b]pyridine-5-carbonitrile]
32 | 0.52 | N#Cc1cnc2sc(-c3cccc(CN4CCN(CC(=O)N5CCCC5)CC4)c3)cc2c1Nc1ccc2[nH]ccc2c1 [Compound 168, 4-(1H-indol-5-ylamino)-2-(3-{[4-(2-oxo-2-pyrrolidin-1-ylethyl)piperazin-1-yl]methyl}phenyl)thieno[2,3-b]pyridine-5-carbonitrile]
33 | 0.103 | Cc1c(Nc2c(C#N)cnc3sc(-c4cc(C=O)cc(OC(C)C)c4)cc23)ccc2[nH]ccc12 [Compound 365, 2-(3-formyl-5-isopropoxyphenyl)-4-[(4-methyl-1H-indol-5-yl)amino]thieno[2,3-b]pyridine-5-carbonitrile]
34 | 0.864 | N#Cc1cnc2sc(C(=O)NCCO)cc2c1Nc1ccc2[nH]ccc2c1 [Compound 254, 5-cyano-N-(2-hydroxyethyl)-4-(1H-indol-5-ylamino)thieno[2,3-b]pyridine-2-carboxamide]
